The target in data set [1] is T1, Bromodomain-containing protein 4 (Homo sapiens, UniProt O60885). Briefly: Inhibition of recombinant human N-terminal His6-FLAG-tagged BRD4 bromodomain 1 expressed in Rosetta2 (DE3) pLysS cells after 60 mins by TR-FRET assay. In kind it is cell-based.
For data set [2], the target named is T2, Bromodomain-containing protein 9 (Homo sapiens, UniProt Q9H8M2).
T2 sequence (Q9H8M2 whole entry): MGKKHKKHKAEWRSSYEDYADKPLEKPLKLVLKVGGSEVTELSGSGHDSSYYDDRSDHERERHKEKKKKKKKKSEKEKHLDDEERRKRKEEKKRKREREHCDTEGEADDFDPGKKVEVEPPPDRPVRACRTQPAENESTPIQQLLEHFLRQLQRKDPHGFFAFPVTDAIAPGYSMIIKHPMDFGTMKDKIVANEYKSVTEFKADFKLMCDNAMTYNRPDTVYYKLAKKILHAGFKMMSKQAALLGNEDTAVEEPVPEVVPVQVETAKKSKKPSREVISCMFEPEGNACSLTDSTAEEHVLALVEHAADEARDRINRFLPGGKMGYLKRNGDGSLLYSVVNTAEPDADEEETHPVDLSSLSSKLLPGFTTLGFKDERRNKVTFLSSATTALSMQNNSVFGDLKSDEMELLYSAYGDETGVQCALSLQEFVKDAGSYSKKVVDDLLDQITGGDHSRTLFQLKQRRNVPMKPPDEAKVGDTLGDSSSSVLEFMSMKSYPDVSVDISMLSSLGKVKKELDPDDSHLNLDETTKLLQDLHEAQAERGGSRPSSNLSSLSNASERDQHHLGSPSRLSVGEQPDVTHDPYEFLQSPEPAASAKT
As to the kind of experiment: Inhibition of recombinant human N-terminal His6-FLAG-tagged BRD9 (unknown origin) expressed in Rosetta2 (DE3) pLysS cells after 60 mins by TR-FRET assay. The format is cell-based.

In data set [3] the target is T1, Bromodomain-containing protein 4. Briefly: Inhibition of recombinant human N-terminal His6-FLAG-tagged BRD4 bromodomain 2 (unknown origin) expressed in Rosetta2 (DE3) pLysS cells after 60 mins by TR-FRET assay. In kind it is cell-based. On the technique in general: Time-resolved FRET reads energy transfer from a long-lived donor to a nearby acceptor.
Data set [4] has as its target T3, Chromatin remodeling regulator CECR2 (Homo sapiens, UniProt Q9BXF3). As to the kind of experiment: Inhibition of recombinant human N-terminal His6-FLAG-tagged CECR2 expressed in Rosetta2 (DE3) pLysS cells after 60 mins by TR-FRET assay. The format is cell-based.
In data set [5] the target is T4, Transcription initiation factor TFIID subunit 1 (Homo sapiens, UniProt P21675). Briefly: Inhibition of recombinant human N-terminal His6-FLAG-tagged TAF1 bromodomain 2 (unknown origin) expressed in Rosetta2 (DE3) pLysS cells after 60 mins by TR-FRET assay. In kind it is cell-based.
Data set [6] addresses T3, Chromatin remodeling regulator CECR2. As to the kind of experiment: Binding affinity to ZsGreen fused-CECR2 bromodomain (M404 to H515 residues) (unknown origin) expressed in human U2OS-C433 cells co expressing (MDPKKKRKVDPKKRKVDPKKKRKV) assessed as induction of protein bromodomain localization from chromatin by measuring formation of large nuclear puncta by fluorescence based assay. The format is cell-based.

Data set [7] addresses T2, Bromodomain-containing protein 9. As to the kind of experiment: Binding affinity to human DNA-tagged BRD9 isoform 1 (130 to 259 residues) expressed in bacterial expression system by BROMOscan assay.
The target in data set [8] is T5, Bromodomain-containing protein 7 (Homo sapiens, UniProt Q9NPI1).
T5 sequence (Q9NPI1 whole entry): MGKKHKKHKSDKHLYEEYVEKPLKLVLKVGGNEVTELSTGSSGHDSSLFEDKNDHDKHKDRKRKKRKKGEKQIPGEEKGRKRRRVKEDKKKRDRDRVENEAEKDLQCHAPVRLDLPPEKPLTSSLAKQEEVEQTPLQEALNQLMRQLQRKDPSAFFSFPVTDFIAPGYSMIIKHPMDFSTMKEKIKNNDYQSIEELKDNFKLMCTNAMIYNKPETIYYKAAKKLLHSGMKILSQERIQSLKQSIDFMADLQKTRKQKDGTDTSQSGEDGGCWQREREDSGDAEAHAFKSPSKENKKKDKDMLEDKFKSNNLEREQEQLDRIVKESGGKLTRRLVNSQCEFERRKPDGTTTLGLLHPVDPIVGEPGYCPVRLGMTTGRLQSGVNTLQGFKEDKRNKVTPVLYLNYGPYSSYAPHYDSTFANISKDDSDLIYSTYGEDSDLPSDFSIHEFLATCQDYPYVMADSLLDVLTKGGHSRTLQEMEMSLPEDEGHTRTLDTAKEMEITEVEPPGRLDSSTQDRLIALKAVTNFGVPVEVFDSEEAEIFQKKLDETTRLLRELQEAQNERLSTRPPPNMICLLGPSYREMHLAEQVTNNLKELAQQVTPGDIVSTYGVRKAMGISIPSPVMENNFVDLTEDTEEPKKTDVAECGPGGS
Briefly: Binding affinity to human DNA-tagged BRD7 (125 to 254 residues) expressed in mammalian expression system by BROMOscan assay.

Data set [9] concerns the target T4, Transcription initiation factor TFIID subunit 1. Briefly: Binding affinity to human DNA-tagged TAF1 bromodomain 2 (1521 to 1656 residues) expressed in bacterial expression system by BROMOscan assay.
Data set [10] concerns the target Transcription initiation factor TFIID subunit 1-like (Homo sapiens, UniProt Q8IZX4). As to the kind of experiment: Binding affinity to human DNA-tagged TAF1L bromodomain 2 (1523 to 1654 residues) expressed in bacterial expression system by BROMOscan assay.
Data set [11] is described as follows: Kinetic solubility of the compound. The format is physicochemical. Particulars: read-out: Kinetic_solubility.

≈ marks a conversion by molar mass, not a printed value. Bounds are passed on as bounds.

These results are taken from ChEMBL document CHEMBL4052791, “GNE-886: A Potent and Selective Inhibitor of the Cat Eye Syndrome Chromosome Region Candidate 2 Bromodomain (CECR2)” (ACS Med Chem Lett, 2017).

Broadly, the IC50 is the point on the concentration scale where inhibition reaches its midpoint. The EC50 is the concentration at which the effect is half-maximal. A word on the Kd: it is a measure of binding affinity in units of concentration. Higher therefore signals a looser complex.

T4 sequence (P21675 whole entry, the tested form may be a part): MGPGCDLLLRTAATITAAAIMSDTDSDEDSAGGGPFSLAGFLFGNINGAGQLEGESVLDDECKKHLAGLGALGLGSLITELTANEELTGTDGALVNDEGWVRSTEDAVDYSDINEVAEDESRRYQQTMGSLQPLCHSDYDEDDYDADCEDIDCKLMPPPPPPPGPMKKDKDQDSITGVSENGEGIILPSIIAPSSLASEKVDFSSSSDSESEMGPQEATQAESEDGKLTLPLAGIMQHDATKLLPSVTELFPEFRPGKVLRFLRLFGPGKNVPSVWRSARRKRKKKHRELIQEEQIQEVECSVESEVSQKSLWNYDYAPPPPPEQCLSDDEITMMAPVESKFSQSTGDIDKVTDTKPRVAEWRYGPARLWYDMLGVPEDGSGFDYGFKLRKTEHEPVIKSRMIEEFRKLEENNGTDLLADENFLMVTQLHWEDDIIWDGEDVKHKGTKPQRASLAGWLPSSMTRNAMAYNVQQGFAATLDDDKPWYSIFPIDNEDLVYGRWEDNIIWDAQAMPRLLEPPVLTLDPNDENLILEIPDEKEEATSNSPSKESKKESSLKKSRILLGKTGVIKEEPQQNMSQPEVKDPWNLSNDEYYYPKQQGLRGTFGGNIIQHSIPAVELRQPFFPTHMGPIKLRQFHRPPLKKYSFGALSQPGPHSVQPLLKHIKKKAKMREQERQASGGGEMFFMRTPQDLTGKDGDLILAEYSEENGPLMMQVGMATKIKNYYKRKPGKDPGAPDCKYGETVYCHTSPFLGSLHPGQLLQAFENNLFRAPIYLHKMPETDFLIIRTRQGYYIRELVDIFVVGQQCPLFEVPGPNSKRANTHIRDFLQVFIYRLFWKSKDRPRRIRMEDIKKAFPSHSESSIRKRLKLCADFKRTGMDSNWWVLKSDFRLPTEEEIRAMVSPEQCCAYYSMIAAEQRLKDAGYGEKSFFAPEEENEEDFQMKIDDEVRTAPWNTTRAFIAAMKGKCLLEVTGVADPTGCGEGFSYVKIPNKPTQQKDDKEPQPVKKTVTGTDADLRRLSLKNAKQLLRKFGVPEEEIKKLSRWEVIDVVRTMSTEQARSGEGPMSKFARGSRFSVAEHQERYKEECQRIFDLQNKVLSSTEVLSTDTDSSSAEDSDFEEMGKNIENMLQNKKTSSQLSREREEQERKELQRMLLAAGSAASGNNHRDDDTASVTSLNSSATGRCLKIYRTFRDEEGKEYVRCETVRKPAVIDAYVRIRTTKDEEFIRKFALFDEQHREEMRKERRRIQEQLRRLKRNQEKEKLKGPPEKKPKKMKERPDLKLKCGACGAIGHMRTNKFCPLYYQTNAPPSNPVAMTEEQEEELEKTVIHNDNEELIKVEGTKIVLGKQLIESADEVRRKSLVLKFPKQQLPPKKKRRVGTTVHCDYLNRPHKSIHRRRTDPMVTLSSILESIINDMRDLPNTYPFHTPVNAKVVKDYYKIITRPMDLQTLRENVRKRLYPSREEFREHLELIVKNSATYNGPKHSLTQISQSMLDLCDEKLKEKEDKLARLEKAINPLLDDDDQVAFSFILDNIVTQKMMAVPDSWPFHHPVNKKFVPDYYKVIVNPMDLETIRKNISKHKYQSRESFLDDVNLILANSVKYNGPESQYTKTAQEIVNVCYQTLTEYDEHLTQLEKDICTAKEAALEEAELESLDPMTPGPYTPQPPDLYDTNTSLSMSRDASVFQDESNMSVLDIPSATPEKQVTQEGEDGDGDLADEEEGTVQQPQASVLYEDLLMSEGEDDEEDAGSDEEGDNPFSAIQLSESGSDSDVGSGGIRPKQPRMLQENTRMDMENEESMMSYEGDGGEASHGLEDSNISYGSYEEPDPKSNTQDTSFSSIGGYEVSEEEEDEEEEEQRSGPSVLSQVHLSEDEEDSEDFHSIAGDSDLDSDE
T3 sequence (Q9BXF3 whole entry): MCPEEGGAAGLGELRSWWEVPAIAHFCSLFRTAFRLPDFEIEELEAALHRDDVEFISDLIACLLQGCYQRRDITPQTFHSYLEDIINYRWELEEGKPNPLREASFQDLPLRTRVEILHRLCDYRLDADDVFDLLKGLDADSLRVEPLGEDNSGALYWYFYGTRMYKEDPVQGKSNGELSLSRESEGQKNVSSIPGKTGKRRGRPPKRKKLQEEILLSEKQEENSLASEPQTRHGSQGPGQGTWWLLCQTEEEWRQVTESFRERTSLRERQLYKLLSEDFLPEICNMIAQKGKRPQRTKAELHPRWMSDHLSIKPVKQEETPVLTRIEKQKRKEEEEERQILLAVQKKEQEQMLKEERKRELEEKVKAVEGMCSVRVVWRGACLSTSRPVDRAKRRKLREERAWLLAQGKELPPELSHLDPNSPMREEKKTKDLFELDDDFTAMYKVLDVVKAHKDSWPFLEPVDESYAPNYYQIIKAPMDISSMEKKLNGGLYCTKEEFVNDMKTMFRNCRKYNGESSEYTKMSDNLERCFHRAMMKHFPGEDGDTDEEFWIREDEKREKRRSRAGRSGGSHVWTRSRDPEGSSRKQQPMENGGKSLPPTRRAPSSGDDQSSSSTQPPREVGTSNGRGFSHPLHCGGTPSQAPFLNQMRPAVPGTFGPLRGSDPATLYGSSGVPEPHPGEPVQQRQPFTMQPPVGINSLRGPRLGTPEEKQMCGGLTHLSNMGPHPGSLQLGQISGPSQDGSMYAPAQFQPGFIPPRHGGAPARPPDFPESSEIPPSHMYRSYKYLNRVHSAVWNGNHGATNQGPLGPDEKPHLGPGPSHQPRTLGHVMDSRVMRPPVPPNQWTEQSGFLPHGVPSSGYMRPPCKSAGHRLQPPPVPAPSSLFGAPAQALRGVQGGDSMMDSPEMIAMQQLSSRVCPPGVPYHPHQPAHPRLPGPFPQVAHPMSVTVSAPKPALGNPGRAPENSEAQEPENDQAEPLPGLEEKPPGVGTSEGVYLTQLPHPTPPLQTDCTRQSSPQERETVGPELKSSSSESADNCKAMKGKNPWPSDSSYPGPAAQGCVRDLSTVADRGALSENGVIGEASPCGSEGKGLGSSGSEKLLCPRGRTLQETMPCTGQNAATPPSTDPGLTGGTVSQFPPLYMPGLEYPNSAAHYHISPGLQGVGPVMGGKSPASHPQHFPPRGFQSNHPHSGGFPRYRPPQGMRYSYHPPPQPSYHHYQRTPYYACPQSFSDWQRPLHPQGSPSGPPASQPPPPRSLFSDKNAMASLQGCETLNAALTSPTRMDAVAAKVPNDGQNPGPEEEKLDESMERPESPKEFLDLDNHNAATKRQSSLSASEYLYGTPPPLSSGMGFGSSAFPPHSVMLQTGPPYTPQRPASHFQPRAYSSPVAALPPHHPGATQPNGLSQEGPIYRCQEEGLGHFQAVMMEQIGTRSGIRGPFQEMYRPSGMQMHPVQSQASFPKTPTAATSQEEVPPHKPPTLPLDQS

For `CN1CCC(NC(=O)c2cn(C)c(=O)c3[nH]ccc23)CC1`, the IC50 was more than 20 µM in data set [1]; 2.4 µM in [2]; more than 20 µM in data set [3]; 1100 nM in data set [4]; 130 nM in [5].
`C=CCn1cc(C(=O)N(C)C2CCN(c3cc(-n4cccn4)ncn3)CC2)c2cc[nH]c2c1=O`: the 50% inhibitory concentration (IC50) in data set [1] was more than 20 µM; in [2], 6.9 µM; in [4] it was 59 nM; in data set [5], 3400 nM.
For `C=CCn1cc(C(=O)N(C)C2CCN(c3cc(-c4ccco4)ncn3)CC2)c2cc[nH]c2c1=O`, in that order: more than 20 µM, 3.3 µM, 45 nM and 2500 nM.
Consider `CN1CCC(N(C)C(=O)c2cn(C)c(=O)c3[nH]ccc23)CC1`, for which the half-maximal inhibitory concentration (IC50) is more than 20 µM in data set [1]; more than 20 µM in data set [2]; 17.2 µM in data set [3]; 780 nM in [4]; 6100 nM in data set [5].
As for `C=CCn1cc(C(=O)N(C)C2CCN(c3ccncn3)CC2)c2cc[nH]c2c1=O`, the IC50 was more than 20 µM in [1], 5 µM in data set [2], 240 nM in data set [4] and 2100 nM in data set [5].
For `C=CCn1cc(C(=O)N(C)C2CCN(c3cc(-c4ccccc4F)ncn3)CC2)c2cc[nH]c2c1=O`, in that order: more than 20 µM, 1.5 µM, 44 nM and 2500 nM.
Take `C=CCn1cc(C(=O)N(C)C2CCN(c3cc(C4CC4)ncn3)CC2)c2cc[nH]c2c1=O`: the IC50 in data set [1] is more than 20 µM; in [2] it was 6.1 µM; in data set [4], 83 nM; in data set [5] it was 1800 nM.
In the case of `C=CCn1cc(C(=O)N(C)C2CCN(c3cc(OC)nc(C)n3)CC2)c2cc[nH]c2c1=O`, the concentration for half-maximal inhibition (IC50) was more than 20 µM in [1], 5.8 µM in data set [2], 71 nM in data set [4] and 2700 nM in data set [5].
Taken in the same sequence, the figures for `C=CCn1cc(C(=O)N(C)C2CCN(c3cc(-c4ccccc4C)ncn3)CC2)c2cc[nH]c2c1=O` were more than 20 µM, 1.7 µM, 46 nM and 2400 nM.
As for `C=CCn1cc(C(=O)N(C)C2CCN(c3cc(C(C)(C)C)ncn3)CC2)c2cc[nH]c2c1=O`, the IC50 in [1] is more than 20 µM; in data set [2], 5.7 µM; in data set [4], 55 nM; in data set [5], 2800 nM.
In the case of `C=CCn1cc(C(=O)N(C)C2CCN(C(C)c3ccccc3)CC2)c2cc[nH]c2c1=O` (racemic), the IC50 in data set [1] is more than 20 µM; in data set [2], more than 20 µM; in data set [3], more than 20 µM; in data set [4], 500 nM; in [5], 16100 nM.
As for `C=CCn1cc(C(=O)N(C)C2CCN(c3cc(-c4cccc(OC)c4)ncn3)CC2)c2cc[nH]c2c1=O`, the IC50 in data set [1] was more than 20 µM; in data set [2] it was 1.6 µM; in [4], 16 nM; in data set [5], 1400 nM. The EC50 in [6] amounted to 370 nM. The dissociation constant (Kd) was found to be 2000 nM in data set [7], 1100 nM in [8], 620 nM in data set [9] and 2400 nM in data set [10]. For the same compound, the solubility kinetic in data set [11] worked out at 122 µM (≈ 60.8 µg/mL).
Consider `C=CCn1cc(C(=O)N(C)C2CCN(c3cc(C4CC4)nc(C)n3)CC2)c2cc[nH]c2c1=O`, for which the IC50 in data set [1] was more than 20 µM; in data set [2] it was 3.5 µM; in data set [4], 52 nM; in data set [5], 3300 nM.
Taken in the same sequence, the figures for `C=CCn1cc(C(=O)N(C)C2CCN(c3cc(-c4ccccc4OC)ncn3)CC2)c2cc[nH]c2c1=O` were more than 20 µM, 2.6 µM, 45 nM and 2600 nM.
On to `CC(C)N1CCC(N(C)C(=O)c2cn(C)c(=O)c3[nH]ccc23)CC1`, for which the IC50 in data set [1] was more than 20 µM; in data set [2] it was 17.8 µM; in [3], 19.2 µM; in data set [4] it was 500 nM; in data set [5], 8400 nM.
Turning to `C=CCn1cc(C(=O)N(C)C2CCN(c3cc(C)nc(C)n3)CC2)c2cc[nH]c2c1=O`, the IC50 in data set [1] was more than 20 µM; in data set [2], 7.6 µM; in data set [4] it was 93 nM; in data set [5] it was 5100 nM.
On to `CC(c1ccccc1)N1CCC(N(C)C(=O)c2cn(C)c(=O)c3[nH]ccc23)CC1` (racemic), for which the half-maximal inhibitory concentration (IC50) is more than 20 µM in data set [1]; 11 µM in data set [2]; 6.1 µM in data set [3]; 330 nM in data set [4]; 3600 nM in data set [5].
Taken in the same sequence, the figures for `C=CCn1cc(C(=O)N(C)C2CCN([C@@H](C)c3ccccc3)CC2)c2cc(C)[nH]c2c1=O` were more than 20 µM, 4.4 µM, more than 20 µM, 190 nM and 11900 nM.
For `C=CCn1cc(C(=O)N(C)C2CCN([C@H](C)c3ccccc3)CC2)c2cc(C)[nH]c2c1=O`, in that order: more than 20 µM, 3.5 µM, more than 20 µM, 200 nM and 16500 nM.
For the compound `C=CCn1cc(C(=O)N(C)C2CCN(c3cc(C(F)(F)F)ncn3)CC2)c2cc[nH]c2c1=O`, the IC50 in data set [1] was more than 20 µM; in data set [2] it was 11.4 µM; in data set [4], 200 nM; in data set [5], 3400 nM.
As for `C=CCn1cc(C(=O)N(C)C2CCN(c3cc(OC)ncn3)CC2)c2cc[nH]c2c1=O`, the 50% inhibitory concentration (IC50) was more than 20 µM in data set [1], 8.5 µM in data set [2], 130 nM in data set [4] and 2800 nM in [5].
